Source: patent publication US5670506A, “Halogen, isothiocyanate or azide substituted xanthines” (Cell Therapeutics, Inc., priority 1993, dated 1997)

System: Ras-transformed 3T3 cells (IL-1-induced signal transduction via the Type I IL-1 receptor)
Experiment: DAG and PA generated after stimulation of Ras-transformed 3T3 cells with IL-1β
Type: cell-based
Conditions: FIGS. 11 and 12, IL-1β stimulation
Excerpt: FIGS. 11 and 12 show the effects of CT1595 on the amount of DAG (diacylglycerol) (FIG. 11) and PA (Phosphatidic acid) (FIG. 12) generated at different times after stimulation of Ras-transformed 3T3 cells with IL-1β. CT1595 is a potent drug to inhibit enzyme activity that generates PA and then DAG by inhibiting IL-1-induced signal transduction, through this second messenger pathway, via the Type I IL-1 receptor. The inhibiting activity was not in a dose-response manner, indication that the IC50 concentration for inhibiting cellular second messenger signaling is probably below 500 nM.
One in vitro assay measures inhibition of the relevant enzymes lysophosphatidic acid acyltransferase (LPAAT) and phosphatidic acid phosphoryl hydrolase (PAPH). […] It is important to note that the assay method permits discrimination between various forms of PA and DAG so that those relevant to the pathway affected by the (R) or (S) compounds of the invention can be measured directly. […] Thus, the relevant unsaturated (non-arachidonic) PA and DAG subspecies may be detected. […]

Cn1cnc2c1c(=O)n(CCCCC(=O)CCl)c(=O)n2C [CT1595, 1-(6-chloro-5-oxohexyl)-3,7-dimethylxanthine]
inhibition of DAG and PA generation (in words): the overall signal is being significantly inhibited | IC50 (Mus musculus, NIH3T3, "probably" below, read-out: IC50 for inhibiting cellular second messenger signaling): < 500 nM
